From paper PMC5218480 (PLoS ONE, 2017)

Tested on: MV-4-11 cells
Assay: Gene expression microarray analysis (Affymetrix PrimeView) and GSEA
Assay type: cell-based, human
Parameters: RFU PODN (11730768_x_at) / Fold change /veh PODN (11730768_x_at) / RFU LINC00158 (11744669_a_at) / Fold change /veh LINC00158 (11744669_a_at) / RFU DUSP10 (11751237_a_at) / Fold change /veh DUSP10 (11751237_a_at) / RFU ID3 (11757404_x_at) / Fold change /veh ID3 (11757404_x_at) / RFU PLEKHG5 (11737974_s_at) / Fold change /veh PLEKHG5 (11737974_s_at) / RFU LRRC4B (11730491_at) / Fold change /veh LRRC4B (11730491_at) / RFU GIMAP4 (11747438_a_at) / Fold change /veh GIMAP4 (11747438_a_at) / RFU KRT8 (11758183_x_at) / Fold change /veh KRT8 (11758183_x_at) / RFU CNN1 (11734310_a_at) / Fold change /veh CNN1 (11734310_a_at) / RFU VPS37D (11726825_at) / Fold change /veh VPS37D (11726825_at) / RFU C10orf10 (11716522_x_at) / Fold change /veh C10orf10 (11716522_x_at) / RFU KIR2DL2 /// KIR2DL4 /// KIR2DL5A /// KIR2DL5B /// KIR2DS1 /// KIR2DS2 /// KIR2DS3 /// KIR2DS4 /// KIR3DL3 /// KIR3DL3 /// KIR3DS1 (11738374_at) / Fold change /veh KIR2DL2 /// KIR2DL4 /// KIR2DL5A /// KIR2DL5B /// KIR2DS1 /// KIR2DS2 /// KIR2DS3 /// KIR2DS4 /// KIR3DL3 /// KIR3DL3 /// KIR3DS1 (11738374_at) / RFU C1QL1 (11718748_at) / Fold change /veh C1QL1 (11718748_at) / RFU TMPRSS4 (11747572_a_at) / Fold change /veh TMPRSS4 (11747572_a_at) / RFU HAMP (11756126_x_at) / Fold change /veh HAMP (11756126_x_at) / RFU RNFT2 (11725882_a_at) / Fold change /veh RNFT2 (11725882_a_at) / RFU NR4A2 (11747474_a_at) / Fold change /veh NR4A2 (11747474_a_at) / RFU ABCC12 (11746883_a_at) / Fold change /veh ABCC12 (11746883_a_at) / RFU TMEM136 (11760407_x_at) / Fold change /veh TMEM136 (11760407_x_at) / RFU CLDN22 /// WWC2 (11732394_at) / Fold change /veh CLDN22 /// WWC2 (11732394_at) / RFU HLA-DPB1 (11760878_x_at) / Fold change /veh HLA-DPB1 (11760878_x_at) / RFU SPINT1 (11716480_a_at) / Fold change /veh SPINT1 (11716480_a_at) / RFU GAP43 (11754022_s_at) / Fold change /veh GAP43 (11754022_s_at) / RFU A4GNT (11735810_at) / Fold change /veh A4GNT (11735810_at) / RFU PRB3 (11715151_x_at) / Fold change /veh PRB3 (11715151_x_at) / RFU TUBB4B (11761932_at) / Fold change /veh TUBB4B (11761932_at) / RFU CAPN14 (11732068_a_at) / Fold change /veh CAPN14 (11732068_a_at) / RFU TMCC2 (11721928_a_at) / Fold change /veh TMCC2 (11721928_a_at) / RFU IRGQ (11745062_a_at) / Fold change /veh IRGQ (11745062_a_at) / RFU FAM174B (11720279_a_at) / Fold change /veh FAM174B (11720279_a_at) / RFU TMPRSS4 (11748680_a_at) / Fold change /veh TMPRSS4 (11748680_a_at) / RFU FAM212B (11763350_a_at) / Fold change /veh FAM212B (11763350_a_at) / RFU PLEKHG5 (11743358_a_at) / Fold change /veh PLEKHG5 (11743358_a_at) / RFU ZSCAN30 (11745921_a_at) / Fold change /veh ZSCAN30 (11745921_a_at) / RFU CMKLR1 (11741424_a_at) / Fold change /veh CMKLR1 (11741424_a_at) / RFU LOC101060620 /// MAPK8IP1 (11723275_at) / Fold change /veh LOC101060620 /// MAPK8IP1 (11723275_at) / RFU SPTSSB (11747773_x_at) / Fold change /veh SPTSSB (11747773_x_at) / RFU PRSS12 (11739890_at) / Fold change /veh PRSS12 (11739890_at) / RFU BIN1 (11741810_x_at) / Fold change /veh BIN1 (11741810_x_at) / RFU WNT11 (11732464_a_at) / Fold change /veh WNT11 (11732464_a_at) / RFU C10orf10 (11716521_a_at) / Fold change /veh C10orf10 (11716521_a_at) / RFU C5orf56 (11738089_at) / Fold change /veh C5orf56 (11738089_at) / RFU CYB561 (11721691_x_at) / Fold change /veh CYB561 (11721691_x_at) / RFU ANKRD19P (11752326_a_at) / Fold change /veh ANKRD19P (11752326_a_at) / RFU OR2T12 /// OR2T33 /// OR2T8 (11738714_s_at) / Fold change /veh OR2T12 /// OR2T33 /// OR2T8 (11738714_s_at) / RFU VCAN (11748164_a_at) / Fold change /veh VCAN (11748164_a_at) / RFU JSRP1 (11732532_at) / Fold change /veh JSRP1 (11732532_at) / RFU KRTAP10-11 (11738290_x_at) / Fold change /veh KRTAP10-11 (11738290_x_at) / RFU MYO3A (11730013_a_at) / Fold change /veh MYO3A (11730013_a_at) / RFU EBF3 (11725865_a_at) / Fold change /veh EBF3 (11725865_a_at) / RFU CAMK2N1 (11719241_x_at) / Fold change /veh CAMK2N1 (11719241_x_at) / RFU C5orf56 (11738088_a_at) / Fold change /veh C5orf56 (11738088_a_at) / RFU OLFML3 (11715873_a_at) / Fold change /veh OLFML3 (11715873_a_at) / RFU LOC100653217 /// NTM (11731650_a_at) / Fold change /veh LOC100653217 /// NTM (11731650_a_at) / RFU MAPK11 (11762145_a_at) / Fold change /veh MAPK11 (11762145_a_at) / RFU FIZ1 (11724087_x_at) / Fold change /veh FIZ1 (11724087_x_at) / RFU OASL (11726364_x_at) / Fold change /veh OASL (11726364_x_at) / RFU SOX15 (11748057_x_at) / Fold change /veh SOX15 (11748057_x_at) / RFU CD79A (11719716_a_at) / Fold change /veh CD79A (11719716_a_at) / RFU HIST1H1D (11736915_at) / Fold change /veh HIST1H1D (11736915_at) / RFU CASKIN2 (11723855_a_at) / Fold change /veh CASKIN2 (11723855_a_at) / RFU LOC730098 (11760151_x_at) / Fold change /veh LOC730098 (11760151_x_at) / RFU OR4N2 (11742367_at) / Fold change /veh OR4N2 (11742367_at) / RFU PRRT2 (11749266_a_at) / Fold change /veh PRRT2 (11749266_a_at) / RFU SNX32 (11753110_a_at) / Fold change /veh SNX32 (11753110_a_at) / RFU CDHR5 (11726645_a_at) / Fold change /veh CDHR5 (11726645_a_at) / RFU RCAN1 (11760418_a_at) / Fold change /veh RCAN1 (11760418_a_at) / RFU FAM167A (11723789_a_at) / Fold change /veh FAM167A (11723789_a_at) / RFU FAM26E (11764081_at) / Fold change /veh FAM26E (11764081_at) / RFU ISYNA1 (11749810_s_at) / Fold change /veh ISYNA1 (11749810_s_at) / RFU ACY1 (11761880_at) / Fold change /veh ACY1 (11761880_at) / RFU 11764098_at / Fold change /veh 11764098_at / RFU SAMD14 (11745864_x_at) / Fold change /veh SAMD14 (11745864_x_at) / RFU NPB (11741838_a_at) / Fold change /veh NPB (11741838_a_at) / RFU TMPRSS6 (11731388_a_at) / Fold change /veh TMPRSS6 (11731388_a_at) / RFU KRTAP10-2 (11738614_at) / Fold change /veh KRTAP10-2 (11738614_at) / RFU ARHGAP8 /// PRR5-ARHGAP8 (11727945_x_at) / Fold change /veh ARHGAP8 /// PRR5-ARHGAP8 (11727945_x_at) / RFU KRTAP5-7 /// NADSYN1 (11734609_at) / Fold change /veh KRTAP5-7 /// NADSYN1 (11734609_at) / RFU RASL12 (11751679_a_at) / Fold change /veh RASL12 (11751679_a_at) / RFU CDKN2B (11736163_a_at) / Fold change /veh CDKN2B (11736163_a_at) / RFU PRF1 (11729649_at) / Fold change /veh PRF1 (11729649_at) / RFU, ZNF638 /// ZNF638-IT1 / Fold change vs veh, ZNF638 /// ZNF638-IT1 / RFU, PANK3 / Fold change vs veh, PANK3 / RFU, SH3YL1 / Fold change vs veh, SH3YL1 / RFU, ZEB2 / Fold change vs veh, ZEB2 / RFU, NRIP1 / Fold change vs veh, NRIP1 / RFU, PTTG1IP / Fold change vs veh, PTTG1IP / RFU, CAPN2 / Fold change vs veh, CAPN2 / RFU, MED14 / Fold change vs veh, MED14 / RFU, SNORA58 / Fold change vs veh, SNORA58 / RFU, C1orf63 / Fold change vs veh, C1orf63 / RFU, LRRFIP1 / Fold change vs veh, LRRFIP1 / RFU, NDUFAF7 / Fold change vs veh, NDUFAF7 / RFU, SLC12A2 / Fold change vs veh, SLC12A2 / RFU, IBTK / Fold change vs veh, IBTK / RFU, ESF1 / Fold change vs veh, ESF1 / Fold change vs veh, TMEM50B / RFU, TAOK1 / Fold change vs veh, TAOK1 / RFU, ACBD3 / Fold change vs veh, ACBD3 / RFU, TMA16 / Fold change vs veh, TMA16 / RFU, RWDD3 / Fold change vs veh, RWDD3 / RFU, BCAT1 / Fold change vs veh, BCAT1 / RFU, EDEM3 / Fold change vs veh, EDEM3 / RFU, TMEM33 / Fold change vs veh, TMEM33 / RFU, WDR75 / Fold change vs veh, WDR75 / RFU, AHCTF1 / Fold change vs veh, AHCTF1 / RFU, TFRC / Fold change vs veh, TFRC / RFU, ZDHHC17 / Fold change vs veh, ZDHHC17 / RFU, NOM1 / Fold change vs veh, NOM1 / RFU, ARL8B / Fold change vs veh, ARL8B / RFU, ZBTB11 / Fold change vs veh, ZBTB11 / RFU, TAMM41 / Fold change vs veh, TAMM41 / RFU, KIAA1704 /// LOC100996395 / Fold change vs veh, KIAA1704 /// LOC100996395 / RFU, ING1 / Fold change vs veh, ING1 / RFU, TRMT61B / Fold change vs veh, TRMT61B / RFU, FUBP3 / Fold change vs veh, FUBP3 / RFU, TP53 / Fold change vs veh, TP53 / RFU, TNKS2 / Fold change vs veh, TNKS2 / RFU, ZFP14 / Fold change vs veh, ZFP14 / RFU, ACTR2 / Fold change vs veh, ACTR2 / RFU, PPP3R1 / Fold change vs veh, PPP3R1 / RFU, PIK3R1 / Fold change vs veh, PIK3R1 / RFU, HNRNPA1 / Fold change vs veh, HNRNPA1 / RFU, RNF170 / Fold change vs veh, RNF170 / RFU, ZNF28 / Fold change vs veh, ZNF28 / RFU, RNGTT / Fold change vs veh, RNGTT / RFU, OGT / Fold change vs veh, OGT / RFU, BRD1 / Fold change vs veh, BRD1 / RFU, MARS / Fold change vs veh, MARS / RFU, ZNF655 / Fold change vs veh, ZNF655 / RFU, FAHD1 / Fold change vs veh, FAHD1 / RFU, BDP1 / Fold change vs veh, BDP1 / RFU, LRRCC1 / Fold change vs veh, LRRCC1 / RFU, ARID1A / Fold change vs veh, ARID1A / RFU, ZNF146 / Fold change vs veh, ZNF146 / RFU, ZNF330 / Fold change vs veh, ZNF330 / RFU, GPN3 / Fold change vs veh, GPN3 / RFU, C9orf123 / Fold change vs veh, C9orf123 / RFU, N4BP2L2 / Fold change vs veh, N4BP2L2 / RFU, ARFIP1 / Fold change vs veh, ARFIP1 / RFU, FAM179B / Fold change vs veh, FAM179B / RFU, BCL10 / Fold change vs veh, BCL10 / RFU, UHRF1BP1L / Fold change vs veh, UHRF1BP1L / RFU, BET1 / Fold change vs veh, BET1 / RFU, CNOT2 / Fold change vs veh, CNOT2 / RFU, ZNF268 / Fold change vs veh, ZNF268 / Fold change vs veh, ZNF507 / RFU, DGCR2 / Fold change vs veh, DGCR2 / RFU, WDSUB1 / Fold change vs veh, WDSUB1 / Fold change vs veh, HSP90B1 /// MIR3652 / RFU, ADSS / Fold change vs veh, ADSS / RFU, GK / Fold change vs veh, GK / RFU, ZNF148 / Fold change vs veh, ZNF148 / RFU, TAF9 / Fold change vs veh, TAF9 / RFU, SLC1A5 / Fold change vs veh, SLC1A5 / RFU, SLMO2 / Fold change vs veh, SLMO2 / RFU, ABCC4 / Fold change vs veh, ABCC4 / RFU, LOC101060439 /// RAP1B / Fold change vs veh, LOC101060439 /// RAP1B / RFU, RFX7 / Fold change vs veh, RFX7 / RFU, GTPBP10 / Fold change vs veh, GTPBP10 / RFU, CNEP1R1 / Fold change vs veh, CNEP1R1 / RFU, BIVM-ERCC5 /// ERCC5 / Fold change vs veh, BIVM-ERCC5 /// ERCC5 / RFU, ILF3 / Fold change vs veh, ILF3 / RFU 11762660_at / Fold change /veh 11762660_at / RFU VCAN (11757783_s_at) / Fold change /veh VCAN (11757783_s_at) / RFU DDX43 (11728927_at) / Fold change /veh DDX43 (11728927_at) / RFU KRT8 (11758188_x_at) / Fold change /veh KRT8 (11758188_x_at) / RFU NKD1 (11759106_at) / Fold change /veh NKD1 (11759106_at) / RFU SRD5A1 (11742802_a_at) / Fold change /veh SRD5A1 (11742802_a_at) / RFU TPSAB1 /// TPSB2 (11721975_s_at) / Fold change /veh TPSAB1 /// TPSB2 (11721975_s_at) / RFU GSTM3 (11746129_a_at) / Fold change /veh GSTM3 (11746129_a_at) / RFU IL23R (11737362_x_at) / Fold change /veh IL23R (11737362_x_at) / RFU TMEM51 (11727254_a_at) / Fold change /veh TMEM51 (11727254_a_at) / RFU PIWIL2 (11732686_x_at) / Fold change /veh PIWIL2 (11732686_x_at) / RFU ORM1 (11744905_x_at) / Fold change /veh ORM1 (11744905_x_at) / RFU CCDC152 (11743942_at) / Fold change /veh CCDC152 (11743942_at) / RFU ECM1 (11717891_a_at) / Fold change /veh ECM1 (11717891_a_at) / RFU IL23R (11748794_a_at) / Fold change /veh IL23R (11748794_a_at) / RFU TNFAIP8L3 (11732012_x_at) / Fold change /veh TNFAIP8L3 (11732012_x_at) / RFU MBOAT4 (11741988_at) / Fold change /veh MBOAT4 (11741988_at) / RFU 11764193_at / Fold change /veh 11764193_at / RFU TMEM53 (11763286_at) / Fold change /veh TMEM53 (11763286_at) / RFU MAGEB2 (11727129_at) / Fold change /veh MAGEB2 (11727129_at) / RFU TMEM200A (11744735_a_at) / Fold change /veh TMEM200A (11744735_a_at) / RFU CCDC152 (11751479_a_at) / Fold change /veh CCDC152 (11751479_a_at) / RFU FAM211A (11726209_a_at) / Fold change /veh FAM211A (11726209_a_at) / RFU RGS16 (11746705_a_at) / Fold change /veh RGS16 (11746705_a_at) / RFU VCAN (11755009_s_at) / Fold change /veh VCAN (11755009_s_at) / RFU RHOB (11743442_s_at) / Fold change /veh RHOB (11743442_s_at) / RFU RGS16 (11720943_a_at) / Fold change /veh RGS16 (11720943_a_at) / RFU RGS16 (11720944_at) / Fold change /veh RGS16 (11720944_at) / RFU, VPS4B / Fold change vs veh, VPS4B / RFU, CREB1 / Fold change vs veh, CREB1 / RFU, DNAJC13 / Fold change vs veh, DNAJC13 / RFU, GNAQ / Fold change vs veh, GNAQ / RFU, CDK5R1 / Fold change vs veh, CDK5R1 / RFU, ZRANB3 / Fold change vs veh, ZRANB3 / RFU, CUL4A / Fold change vs veh, CUL4A / RFU, CCNY / Fold change vs veh, CCNY / RFU, UFL1 / Fold change vs veh, UFL1 / RFU, COG3 / Fold change vs veh, COG3 / RFU, DIAPH2 / Fold change vs veh, DIAPH2 / RFU, SKA2 / Fold change vs veh, SKA2 / RFU, AFF3 / Fold change vs veh, AFF3 / RFU, LMF1 / Fold change vs veh, LMF1 / RFU, IPO11 / Fold change vs veh, IPO11 / RFU, DFFB / Fold change vs veh, DFFB / RFU, FOXP1 / Fold change vs veh, FOXP1 / RFU, CARD8 / Fold change vs veh, CARD8 / RFU, STRN3 / Fold change vs veh, STRN3 / RFU, ADK / Fold change vs veh, ADK / RFU, RASSF2 / Fold change vs veh, RASSF2 / RFU, WIPF1 / Fold change vs veh, WIPF1 / RFU, LARP1B / Fold change vs veh, LARP1B / RFU, RASA1 / Fold change vs veh, RASA1 / RFU, RB1 / Fold change vs veh, RB1 / RFU, PPFIA1 / Fold change vs veh, PPFIA1 / RFU, MAT2A / Fold change vs veh, MAT2A / RFU, CCT5 / Fold change vs veh, CCT5 / RFU, WDR92 / Fold change vs veh, WDR92 / RFU, CUX1 / Fold change vs veh, CUX1 / RFU, TTC7A / Fold change vs veh, TTC7A / RFU, TMEM135 / Fold change vs veh, TMEM135 / RFU, DEPTOR / Fold change vs veh, DEPTOR / RFU, CPM / Fold change vs veh, CPM / RFU, DNAJB6 / Fold change vs veh, DNAJB6 / RFU, CACNA2D3 / Fold change vs veh, CACNA2D3 / RFU, DTX4 / Fold change vs veh, DTX4 / RFU, TFCP2 / Fold change vs veh, TFCP2 / RFU, GMCL1 /// GMCL1P1 / Fold change vs veh, GMCL1 /// GMCL1P1 / RFU, AEBP2 / Fold change vs veh, AEBP2 / RFU, SNHG1 /// SNORD22 /// SNORD25 /// SNORD26 /// SNORD27 /// SNORD28 /// SNORD29 /// SNORD31 / Fold change vs veh, SNHG1 /// SNORD22 /// SNORD25 /// SNORD26 /// SNORD27 /// SNORD28 /// SNORD29 /// SNORD31 / Fold change (Aza/veh), C12orf56 (ProbeSet 11735607_a_at) / Fold change (ACY-1035/veh), C12orf56 (ProbeSet 11735607_a_at) / Fold change (Aza/veh), FGFR1OP (ProbeSet 11751329_s_at) / Fold change (ACY-1035/veh), FGFR1OP (ProbeSet 11751329_s_at) / Fold change (Aza/veh), VPS36 (ProbeSet 11739960_a_at) / Fold change (ACY-1035/veh), VPS36 (ProbeSet 11739960_a_at) / RFU SYPL1 (11715823_x_at) / Fold change /veh SYPL1 (11715823_x_at) / RFU IGFBP7 (11715501_s_at) / Fold change /veh IGFBP7 (11715501_s_at) / RFU REEP3 (11722064_at) / Fold change /veh REEP3 (11722064_at) / RFU IGLL1 (11728026_x_at) / Fold change /veh IGLL1 (11728026_x_at): dose or concentration left out as unconfirmed
Settings: MV-4-11 cells, 48 hours

Nc1ccc(-c2cccs2)cc1NC(=O)c1ccc2c(c1)cc(C1CC1)n2CCN1CCOCC1 [ACY-1035]
Fold change /veh HLA-DPB1 (11760878_x_at): 1.16
